Like-named read-outs stand apart in the source and are kept apart here.
How the values were obtained:
[1] = design: method as in PMID 24838869; details: dissociation of [Sc(DOTA)]; cited from earlier work
[2] = Fluoride binding of [Sc(PC2AM^nBu)]^+ (ternary complex stability), 19F NMR titration; type: physicochemical; details: for log K ScLF: stability constant of the ternary fluoride complex, 19F NMR, pH = 5.2, I = 0.15 M NaCl, 25 °C; for K= [Sc(L)F]/[Sc(L)]*[F^-] / log K: titration point: complex 0.0050 M, pH 5.20, I = 0.15 M NaCl, 298 K
Text: Sc(III) is a typical “hard” cation, forming very stable complexes with fluoride anion.^[ [51], [52] ^] […] The formation of the ternary [Sc(PC2AM^nBu)(F)] complex can be followed by […], as two sets of signals (Δδ ∼ 20 Hz) indicate a slow exchange regime on the […] time scale (Figure S16). Measuring the intensities of the free and bound fluoride signals, the stability constant (Eqn. 6) of the [Sc(PC2AM^nBu)(F)] complex (Eqn. 5) can be calculated (Table S1).
(5) [Sc(PC2AM^nBu)]^++F^−⇌[Sc(PC2AM^nBu)(F)] (6) KScLF=ScPC2AM^nBuF/[ScPC2AM^nBu^+]F^−
Table S1. Summary of data used for the calculation of the stability constant, log K[Sc(PC2AM^nBu)(F)] by titration of 0.005M [Sc(PC2AM^nBu)]^+ parent complex with different amounts of F^- (0.005 - 0.01 M concentration range) followed by 376.4 MHz ^19F NMR (I = 0.15 M NaCl, c Sc(PC2AM^nBu) = 5 mM, pH=5.20, T= 298 K).

[3] = Fluoride exchange kinetics, 19F NMR selective magnetization transfer; type: physicochemical; details: complex 5 mM, cF = 10 mM, 14% uncertainty; for k obs ^AB (fluoride exchange, complex site A to free F^− site B): 298 K
Text: Considering ^18F‐labeling and PET application of the [Sc(L)(F)]‐type mixed complexes, one has to check the inertness of the mixed complex against F‐exchange:
(7) [Sc(PC2AM^nBu)F]+∗F^−⇌[Sc(PC2AM^nBu)∗F]+F^− where * is used to indicate typographically the exchanging anion.
The ^19F NMR signal of the mixed complex is somewhat broadened (ν ½ = 150 Hz) due to the relaxation effect of the quadrupole ^45Sc (I = 7/2) nuclei, while the free fluoride is narrow (ν ½ = 4.5 Hz), indicating the absence of chemical exchange on the T 2‐time scale (Figure S24). […] (site A) and free F^− (site B) with k obs ^AB value of 0.6 s^−1 (14% uncertainty), indicating remarkable inertness of the monodentate fluoride (Figure S25). Very recently, 3–4 orders of magnitude larger fluoride exchange rate constants have been published for two Y(III) complexes formed with open‐chain ligands, [Y(EGTA)(F)]^2− and [Y(OBETA)(H2O)(F)]^2−.^[ [56] ^] […] At the same time, the k obs value obtained for the [Sc(OPC2A)(F)] complex (k obs = 16.5 s^−1) is lower by an order of magnitude than that of [Yb(DTMA)(F)]^2+ [ [45] ^] which is likely to be rationalized by the more rigid environment around the M(III)‐F entity.
Figure S25. Selective magnetization transfer (MT) experiment (intensity vs. delay time) curves for [Sc(PC2AAM^nBu)(F)] (c[Sc(PC2AAMnBu)(F)] = 5 mM, cF = 10 mM, pH = 5.50, 298 K). The symbols show the measured intensities: red triangle [Sc(PC2AAM^nBu)(F)] (site A); blue square, free F^- (site B), the curves represent the fitted data (k^obsBA = 1.2 s^-1 (14% uncertainty), k^obsAB = 0.60 s^-1 (14% uncertainty), T1,A= 0.211 s; T1,B = 1.28 s (fixed)).

[4] = cited from earlier work

With `O=C(O)CN1CCN(CC(=O)O)CCN(CC(=O)O)CCN(CC(=O)O)CC1` [DOTA] as the compound, how does the “k 0 (spontaneous dissociation)” value [1] read?
The value was 6e-06 s⁻¹.

What about the “k 1 (acid‐assisted dissociation)” value [1] of the same compound?
The value was 4.3e-06 M⁻¹ s⁻¹.

For `CCCCNC(=O)CN1CCN(CC(=O)[O-])Cc2cccc(n2)CN(CC(=O)[O-])CC1.[F-].[Sc+3]` [[Sc(PC2AM^nBu)(F)]], which “log K ScLF” value [2] is on record?
The value was 2.5(2).

What about the “log K ScLF” value ([2]; listed as [Sc(PC2AMnBu)(F)]) of the same compound?
The value was 2.5.

What about the “K= [Sc(L)F]/[Sc(L)]*[F^-]” value ([2]; F^- 0.0050 M) of the same compound?
Its value is 356.65.

What about the “log K” value ([2]; F^- 0.0050 M) of the same compound?
Its value is 2.55.

What about the “K= [Sc(L)F]/[Sc(L)]*[F^-]” value ([2]; F^- 0.0060 M) of the same compound?
Its value is 508.89.

What about the “log K” value ([2]; F^- 0.0060 M) of the same compound?
The value was 2.71.

What about the “K= [Sc(L)F]/[Sc(L)]*[F^-]” value ([2]; F^- 0.0070 M) of the same compound?
Its value is 342.86.

What about the “log K” value ([2]; F^- 0.0070 M) of the same compound?
The value was 2.54.

What about the “K= [Sc(L)F]/[Sc(L)]*[F^-]” value ([2]; F^- 0.0080 M) of the same compound?
The value was 222.09.

And the “log K” value ([2]; F^- 0.0080 M)?
Its value is 2.35.

What about the “K= [Sc(L)F]/[Sc(L)]*[F^-]” value ([2]; F^- 0.0100 M) of the same compound?
The value was 150.79.

And the “log K” value ([2]; F^- 0.0100 M)?
The value was 2.18.

And the “k obs ^AB (fluoride exchange, complex site A to free F^− site B)” value [3]?
Its value is 0.6 s⁻¹.

And the “k obs ^AB (fluoride exchange, complex site A to free F^− site B)” value ([3]; listed as [Sc(PC2AAM^nBu)(F)])?
Its value is 0.60 s⁻¹.

What about the “k^obsBA (fluoride exchange, free F^- site B to complex site A)” value ([3]; pH = 5.50, 298 K) of the same compound?
Its value is 1.2 s⁻¹.

Which “k obs (fluoride exchange)” value ([4]; literature value) does the source give for `O=C([O-])CN1CCOCCN(CC(=O)[O-])Cc2cccc(n2)C1.[F-].[Sc+3]` [[Sc(OPC2A)(F)]] here?
Its value is 16.5 s⁻¹.

With `CNC(=O)CN1CCN(CC(=O)NC)CCN(CC(=O)NC)CCN(CC(=O)NC)CC1.[F-].[Yb+3]` [[Yb(DTMA)(F)]^2+] as the compound, how does the “k obs (fluoride exchange)” value ([4]; literature value) read?
Its value is 216 s⁻¹.

Which “k obs (fluoride exchange)” value ([4]; estimate, no magnetization effect in MT experiment) does the source give for `F.O=C([O-])CN(CCN(CC(=O)[O-])CC(=O)O)CC(=O)[O-].[Al+3]` [[Al(EDTA)(F)]^2−] here?
The value was “greater than or equal to 0.2 s^−1”.

Source: paper PMC12731536, “Sc(III) Complexes of Pyclen Derivative Ligands as Probes for Hypoxia: Synthesis, Chemical Characterization, ^44Sc‐Radiolabeling, and Preclinical Assessment” (Chemistry (Weinheim an Der Bergstrasse, Germany), 2025)
